Consider nine compounds from ChEMBL document CHEMBL1201862, “PubChem BioAssay data set” (2004).

Among the test systems are 786-0; A498; ACHN; CCRF-CEM; COLO 205; HCT-116; HCT-15; HL-60; IGROV-1; MOLT-4; NCI-H23; OVCAR-4; OVCAR-5; SF-268; SF-539; SK-MEL-28; SK-MEL-5; SNB-19; UACC-257; UO-31.
What all share (test): DTP human tumour cell line panel, 48 h

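Assay format: 96-well plates, 48-hour exposure. GI50 is the concentration that inhibits growth by half.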 Active and inactive are the calls of the source. No stated cut-off is given here; in the data, active = GI50 up to about 1.1 µM and inactive = higher.

On to `CCN(CC)c1ccc2cc(C(=O)Nc3nc(C45CC6CC(CC(C6)C4)C5)cs3)c(=O)oc2c1`, for which the GI50 in the test with 786-0, in the test with A498, in the test on ACHN, in the test with CCRF-CEM, in the test on COLO 205 and in the test on HCT-116 was > 100 µM (inactive) in each case. Also, the GI50 in the test with HCT-15 was above 100 µM; in the test on HL-60 it was > 100 µM (inactive); in the test on IGROV-1, > 100 µM (inactive); in the test on MOLT-4, > 100 µM (inactive); in the test with NCI-H23, > 100 µM (inactive); with OVCAR-4 it was > 100 µM (inactive). Moreover, the GI50 in the test on OVCAR-5, with SF-268, with SF-539, in the test with SK-MEL-28, in the test with SK-MEL-5 and in the test on SNB-19 was > 100 µM (inactive) in each case. Also, the GI50 in the test on UACC-257 and in the test with UO-31 was > 100 µM (inactive) in each case.
As to `C=C(Nc1ccc(OC)cc1OC)C(=O)Cc1cccc[n+]1[O-]`, the GI50 in the test with 786-0, in the test with A498, in the test with ACHN, in the test on CCRF-CEM, in the test on COLO 205 and in the test on HCT-116 was > 100 µM (inactive) in each case. The GI50 in the test with HCT-15 was above 100 µM; in the test with HL-60, > 100 µM (inactive); with IGROV-1 it was > 100 µM (inactive); with MOLT-4, > 100 µM (inactive); in the test on NCI-H23, > 100 µM (inactive); in the test on OVCAR-4, > 100 µM (inactive). The GI50 with OVCAR-5, with SF-268, with SF-539, with SK-MEL-28, in the test on SK-MEL-5 and in the test on SNB-19 was > 100 µM (inactive) each time. The GI50 in the test with UACC-257 and in the test on UO-31 was > 100 µM (inactive) in each case.
Consider `C[C@]12CC[C@H](O[C@@H]3O[C@H](CO[C@@H]4O[C@H](CO)[C@@H](O)[C@H](O)[C@H]4O)[C@@H](O)[C@H](O)[C@H]3O)C[C@@H]1CC[C@@H]1[C@@H]2CC[C@]2(C)[C@@H](C3=CC(=O)OC3)CC[C@]12O` [UZARIN], for which the GI50 is 43.6 µM (inactive) in the test on 786-0; 24.9 µM (inactive) in the test with A498; 8.57 µM (inactive) with ACHN; 4.07 µM (inactive) in the test on CCRF-CEM; 50.1 µM (inactive) in the test on COLO 205; 9.06 µM (inactive) with HCT-116. Moreover, the GI50 with HCT-15 is 18.2 µM; in the test on HL-60 it was 20.2 µM (inactive); in the test on IGROV-1 it was 10.7 µM (inactive); with MOLT-4, 4.02 µM (inactive); with NCI-H23, 11.1 µM (inactive); in the test on OVCAR-4, 17.3 µM (inactive). Also, the GI50 in the test with OVCAR-5 was 27.4 µM (inactive); in the test with SF-268, 11 µM (inactive); in the test on SF-539, 15.5 µM (inactive); in the test on SK-MEL-28, > 80 µM (inactive); in the test with SK-MEL-5, 4.62 µM (inactive); in the test on SNB-19, 38.9 µM (inactive). Moreover, the GI50 with UACC-257 is 31.3 µM (inactive); with UO-31, 25.1 µM (inactive).
With `O=C1/C(=C/c2ccccc2)CCC/C1=C\c1ccccc1` [2,6-DIBENZYLIDENECYCLOHEXANONE], the GI50 in the test on 786-0 was 12.8 µM (inactive); with A498, 16.1 µM (inactive); in the test with ACHN, 15.7 µM (inactive); in the test with CCRF-CEM, 4.12 µM (inactive); in the test on COLO 205 it was 17.9 µM (inactive); in the test with HCT-116, 1.71 µM (inactive). In addition, the GI50 was 8.07 µM in the test with HCT-15; 2.8 µM (inactive) in the test with HL-60; 13 µM (inactive) with IGROV-1; 3.95 µM (inactive) with MOLT-4; 12.8 µM (inactive) with NCI-H23; 14.9 µM (inactive) in the test on OVCAR-4. For the same compound, the GI50 with OVCAR-5 was 17.3 µM (inactive); in the test on SF-268, 11 µM (inactive); in the test on SF-539, 16.6 µM (inactive); with SK-MEL-28, 16.6 µM (inactive); in the test with SK-MEL-5 it was 13.2 µM (inactive); with SNB-19 it was 14.6 µM (inactive). In addition, the GI50 in the test with UACC-257 was 17 µM (inactive); in the test with UO-31, 18.2 µM (inactive).
Take `COC1=C(C(c2cc(OC)c(OC)c(OC)c2)c2cc3c(cc2OC)OCO3)C(=O)OC1` (stereo not given): the GI50 with 786-0 is 26.1 µM (inactive); in the test with A498, 14.9 µM (inactive); in the test on ACHN it was 26.7 µM (inactive); in the test with CCRF-CEM, 21.4 µM (inactive); in the test on COLO 205, 23.8 µM (inactive); in the test with HCT-116 it was 7.01 µM (inactive). The GI50 with HCT-15 was 20.4 µM; in the test on HL-60, 8.55 µM (inactive); with IGROV-1, 29.4 µM (inactive); with MOLT-4 it was 44.2 µM (inactive); in the test on NCI-H23 it was 24.8 µM (inactive); in the test on OVCAR-4, 30.4 µM (inactive). Moreover, the GI50 with OVCAR-5 was 34.4 µM (inactive); in the test with SF-268 it was 24.6 µM (inactive); in the test with SF-539, 15.4 µM (inactive); in the test on SK-MEL-28, 12.7 µM (inactive); in the test with SK-MEL-5, 22.8 µM (inactive); in the test on SNB-19, 30.7 µM (inactive). The GI50 with UACC-257 was > 34.4 µM (inactive); in the test on UO-31, 14.2 µM (inactive).
With `COc1cc2c(cc1O)CC[C@@H]1C2CC[C@@]2(C)C1CC[C@@H]2O` (stereo not given in full), the GI50 with 786-0 was 2.07 µM (inactive); in the test with A498, 16.7 µM (inactive); in the test on ACHN it was 9.84 µM (inactive); with CCRF-CEM, 0.689 µM (active); in the test on COLO 205, 36.7 µM (inactive); with HCT-116, 1.19 µM (inactive). The concentration for 50% growth inhibition (GI50) was 0.566 µM in the test with HCT-15; 0.47 µM (active) in the test on HL-60; 5.51 µM (inactive) in the test on IGROV-1; 0.532 µM (active) in the test with MOLT-4; 2.05 µM (inactive) in the test on NCI-H23; 29.6 µM (inactive) in the test with OVCAR-4. Besides, the GI50 in the test with OVCAR-5 was 37 µM (inactive); in the test on SF-268, 3.43 µM (inactive); in the test with SF-539, 0.807 µM (active); in the test on SK-MEL-28 it was 3.7 µM (inactive); in the test on SK-MEL-5, 1.35 µM (inactive); in the test with SNB-19 it was 16.3 µM (inactive). Besides, the GI50 in the test on UACC-257 was 11.2 µM (inactive); with UO-31 it was 6.65 µM (inactive).
For `O=C1/C(=C/c2ccccc2)CN(C(=O)C(Cl)(Cl)Cl)C/C1=C\c1ccccc1`, the GI50 in the test on 786-0 is 2.89 µM (inactive); with A498 it was 4.24 µM (inactive); in the test with ACHN it was 2.01 µM (inactive); in the test with CCRF-CEM it was 0.551 µM (active); in the test on COLO 205, 2.25 µM (inactive); in the test with HCT-116 it was 0.356 µM (active). The GI50 in the test on HCT-15 was 1.68 µM; in the test with HL-60 it was 0.159 µM (active); with IGROV-1, 2.06 µM (inactive); in the test with MOLT-4 it was 1.36 µM (inactive); in the test on NCI-H23, 2.37 µM (inactive); in the test with OVCAR-4 it was 1.73 µM (inactive). For the same compound, the GI50 is 2.51 µM (inactive) in the test on OVCAR-5; 3.33 µM (inactive) in the test with SF-268; 3.12 µM (inactive) with SF-539; 1.73 µM (inactive) in the test on SK-MEL-28; 1.15 µM (inactive) in the test on SK-MEL-5; 2.82 µM (inactive) in the test on SNB-19. For the same compound, the values for the GI50 with UACC-257 and in the test on UO-31 were 1.58 µM (inactive) and 2.59 µM (inactive), respectively.
Turning to `C[C@@H]1O[C@]2(O)[C@@H]3CCCN3S(=O)(=O)CCN2C1=O`, the GI50 with 786-0, in the test with A498, in the test on ACHN, with CCRF-CEM, in the test on COLO 205 and with HCT-116 was > 100 µM (inactive) throughout. The GI50 in the test on HCT-15 was above 100 µM; in the test on HL-60, > 100 µM (inactive); in the test on IGROV-1, > 100 µM (inactive); in the test on MOLT-4, > 100 µM (inactive); in the test on NCI-H23, > 100 µM (inactive); with OVCAR-4, > 100 µM (inactive). The GI50 in the test with OVCAR-5, with SF-268, in the test on SF-539, with SK-MEL-28, in the test with SK-MEL-5 and in the test with SNB-19 was > 100 µM (inactive) in each case. Besides, the GI50 in the test with UACC-257 and with UO-31 was > 100 µM (inactive) in each case.
Consider `CNNC(=NS(=O)(=O)c1cc(C#N)c(NNC)cc1S)NNC`, for which the GI50 in the test with 786-0, in the test on A498, in the test on ACHN, in the test on CCRF-CEM, in the test on COLO 205 and in the test on HCT-116 was > 10 µM (inactive) each time. The 50% growth inhibitory concentration (GI50) in the test on HCT-15 was above 10 µM; in the test on HL-60, > 10 µM (inactive); in the test on IGROV-1, > 10 µM (inactive); in the test with MOLT-4, > 10 µM (inactive); with NCI-H23, > 10 µM (inactive); in the test with OVCAR-4 it was > 10 µM (inactive). Moreover, the GI50 in the test on OVCAR-5, with SF-268, in the test on SF-539, with SK-MEL-28, in the test on SK-MEL-5 and in the test with SNB-19 was > 10 µM (inactive) each time. The GI50 in the test with UACC-257 and with UO-31 was > 10 µM (inactive) throughout.

One may read the GI50 as the concentration that inhibits growth by half.
